The source of these data is patent US20130217712A1, “[…] FOR EGFR INHIBITOR TREATMENT” (Hoffmann-La Roche Inc., priority 2007, published 2013).

The conditions of series [1]: patients with cancer, 150 mg/day dose; 500 ng/ml is the average concentration targeted for clinical efficacy; cited from earlier work.
The test system of series [2] is patients with advanced NSCLC following failure of at least one prior chemotherapy regimen. Kind of series: Open-label Phase II predictive marker identification study of Tarceva monotherapy, response by RECIST and survival. The format is in vivo, human. The conditions noted are these: all enrolled patients n=264; oral 150 mg/day. On the procedure:
The selection of this dose was based on pharmacokinetic parameters, as well as the safety and tolerability profile of this dose observed in Phase I, II and III trials in heavily pre-treated patients with advanced cancer. Drug levels seen in the plasma of patients with cancer receiving the 150 mg/day dose were consistently above the average plasma concentration of 500 ng/ml targeted for clinical efficacy.
This was an open-label, predictive marker identification Phase II study. The study was conducted in approximately 26 sites in about 12 countries. 264 patients with advanced NSCLC following failure of at least one prior chemotherapy regimen were enrolled over a 12 month period. […] Dose reductions were permitted based on tolerability to drug therapy. Clinical and laboratory parameters were assessed to evaluate disease control and toxicity. Treatment continued until disease progression, unacceptable toxicity or death. The study design is depicted in FIG. 1.
The RECIST (Uni-dimensional Tumor Measurement) criteria were used to evaluate response. […]
A regular status check every 3 months was performed either by a patient's visit to the clinic or by telephone. All deaths were recorded. […]

Each structure is given as a SMILES string.

On to `C#Cc1cccc(Nc2ncnc3cc(OCCOC)c(OCCOC)cc23)c1` [Erlotinib, erlotinib], for which, in series [1], the “drug level in plasma” value was > 500 ng/mL. In series [2], the Median overall survival was 7.6 (CI 7-9) months and the median progression-free survival is listed as 11.3 (CI 8-12) weeks.
